Patent US8119629B2, “Carboxamide GABAA α2 modulators” (Bristol-Meyers Squibb Company, priority 2007, dated 2012)
Structures can show the parent of a compound that is named as a salt.

Target: T1, rat GABAA α2β2γ2 Receptors (Rattus norvegicus, UniProt P23576)
T1 construct: expressed in transfected cells; pIRES Neo2 / Hygro2 / Puro2 vectors
Test: PatchXpress 7000A automated parallel patch-clamp: potentiation of GABA EC20 current in HEK293 cells
Format: cell-based
Conditions: percent increase in mean GABA EC20 current response; HEK293 cells stably expressing rat GABAA α2β2γ2; voltage-clamped at −60 mV
Description: Cell Line Generation and Transient Expression. In order to generate stable clonal lines expressing GABAA configurations containing α2β2γ2 subunits, HEK293 cells were transfected with 2 μg of the subunit, using the Invitrogen Lipofectamine PLUS protocol. The following DNA and vector were used for the stable transfection: α2 subunits in pIRES Neo2, β2 subunit in pIRES Hygro2, and a γ2 subunit in pIRES Puro2. Transfectants were selected with G418, Hygromycin B, and Puromycin antibiotics and cloned by limiting dilution. For transient expression, transfections were performed using the Amaxa transfection protocol and 2 μg DNA of the GABAA receptor subunit using Amaxa transfection protocol. Cells were used for experiments 24-72 hrs post transfection.
PatchXpress® 7000A Automated Parallel Patch-Clamp System. HEK293 cells stably expressing recombinant the rat GABAA/α2β2γ2 configuration were harvested by a single DPBS wash followed by 0.025% Trypsin-EDTA treatment for one minute at room temperature. A 6-ml cell suspension (1.7×10^5 cells/ml) was centrifuged at 500 rpm for 60 s. The cell pellet was gently agitated, suspended in 150 μl extracellular saline buffer, and transferred to a 1.5-ml tube.
After manually placing the AVIVA Biosciences SealChip 16™ in the holder of the PatchXpress®, the SealChip16™ was automatically prepared for application of the cells. Intracellular solution containing (in mM) CsCl, 135; EGTA, 11; MgCl2, 1; HEPES, 10; ATP, 5; GTP, 0.3 (pH 7.3 with CsOH, 290-300 mOsmol) was injected into the bottom of each chamber, and extracellular solution containing (in mM) NaCl, 140; KCl, 4; CaCl2, 1.8; MgCl2, 1; glucose, 10; HEPES, 10; ATP-K2, 5 (pH 7.4 with NaOH 305-310 mOsmol) was perfused into the top of the chambers through a 16-nozzle wash station. Throughout this period, the pressure controller maintained a positive pressure (+10 mmHg) from the intracellular side to keep the hole free of debris. Seal formation was achieved by a ramp increase in negative pressure from 0 to −35 mmHg at a rate of −3.5 mmHg/s every 10 s until a giga ohm seal was obtained and verified for 30 s.
Compounds were prepared from fresh DMSO stock and were transferred to a 96-well disposable glass insert compound plate for placement in the PatchXpress®. A full 10 point concentration-response curve for GABA was obtained for the GABA receptor cell line, from which an EC20 was estimated. Test compounds were assayed for their ability to potentiate the current response by an EC20 concentration of GABA. Each experiment began by two consecutive applications of GABA EC20 alone. Following formation of a giga-ohm seal, patch chambers were perfused with extracellular saline for 60 s to remove excess cells from the well. Cells were then voltage-clamped to −60 mV for the duration of the experiment. After 60 s, 30 μl (10 μl/s over 3 s) of GABA EC20 concentration, which elicited a GABA receptor-mediated inward Cl^− current generally in the order of 200-300 pA in peak amplitude, was added to each chamber. The GABA EC20 concentration was then washed out of the recording chamber after 5 s and washing with extracellular saline was continued for 60 s. After another 60 s, a second GABA EC20 concentration was applied under the same paradigm. […] Following the second GABA EC20 application, the lowest concentration of test compound in the presence of the GABA EC20 concentration was similarly applied. Ascending concentrations of the test compound were applied successively to an individual well in the presence of the GABA EC20 concentration.
Only cells meeting strict predetermined patch-clamp QC parameters, including seal resistance, membrane resistance, and holding current were included in data analysis. GABA current responses in the presence of test compound were measured and expressed as the mean of the initial control GABA EC20 current responses. The peak current amplitude was measured using DataXpress/pCLAMP9 (Axon Instruments). Linear leak subtraction was performed off-line. […]

T1 sequence (P23576 29-451): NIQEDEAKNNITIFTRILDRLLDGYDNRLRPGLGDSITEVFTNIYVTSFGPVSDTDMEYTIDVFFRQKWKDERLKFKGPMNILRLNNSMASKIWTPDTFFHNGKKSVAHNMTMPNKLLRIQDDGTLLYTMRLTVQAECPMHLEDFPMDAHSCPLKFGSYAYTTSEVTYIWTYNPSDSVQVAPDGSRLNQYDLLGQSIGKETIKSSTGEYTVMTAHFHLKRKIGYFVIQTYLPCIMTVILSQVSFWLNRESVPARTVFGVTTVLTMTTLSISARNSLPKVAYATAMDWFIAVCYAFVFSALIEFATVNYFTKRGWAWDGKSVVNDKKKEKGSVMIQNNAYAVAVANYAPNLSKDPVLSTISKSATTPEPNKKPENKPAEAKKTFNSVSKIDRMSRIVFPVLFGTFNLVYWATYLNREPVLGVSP
T1 sequence (P63138 25-474 partner limits assumed): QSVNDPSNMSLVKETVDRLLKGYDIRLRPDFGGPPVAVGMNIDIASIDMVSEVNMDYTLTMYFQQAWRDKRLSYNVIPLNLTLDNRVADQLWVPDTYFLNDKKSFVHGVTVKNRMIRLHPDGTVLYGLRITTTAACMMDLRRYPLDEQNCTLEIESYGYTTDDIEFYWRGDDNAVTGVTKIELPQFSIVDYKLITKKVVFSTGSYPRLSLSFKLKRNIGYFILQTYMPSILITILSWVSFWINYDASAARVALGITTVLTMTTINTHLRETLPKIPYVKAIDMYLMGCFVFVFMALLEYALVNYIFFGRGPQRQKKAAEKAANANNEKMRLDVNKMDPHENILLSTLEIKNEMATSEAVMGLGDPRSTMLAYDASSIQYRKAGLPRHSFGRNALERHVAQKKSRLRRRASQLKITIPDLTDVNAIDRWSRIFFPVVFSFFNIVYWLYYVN
T1 sequence (P18508 39-466 partner): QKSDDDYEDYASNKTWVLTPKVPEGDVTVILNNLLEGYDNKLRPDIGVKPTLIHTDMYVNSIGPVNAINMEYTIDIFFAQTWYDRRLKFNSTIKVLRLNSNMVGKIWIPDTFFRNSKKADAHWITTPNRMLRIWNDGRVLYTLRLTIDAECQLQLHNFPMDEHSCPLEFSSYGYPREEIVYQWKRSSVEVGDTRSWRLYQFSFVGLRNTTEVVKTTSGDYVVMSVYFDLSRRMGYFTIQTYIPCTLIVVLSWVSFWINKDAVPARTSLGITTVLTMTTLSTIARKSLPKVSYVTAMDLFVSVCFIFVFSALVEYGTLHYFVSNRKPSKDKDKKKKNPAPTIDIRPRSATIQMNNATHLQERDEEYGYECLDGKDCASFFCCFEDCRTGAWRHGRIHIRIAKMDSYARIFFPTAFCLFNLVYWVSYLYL

“N-Cyclopropyl-8-ethynyl-6-phenyl-4H-benzo[f]imidazo[1,5-a][1,4]diazepine-3-carboxamide [Example 11]” was tested, and the “GABAA α2 EP EMAX (%)” value was “** (300% < Emax < 400 **)”.

Same assay, conditions: percent increase in mean GABA EC20 current response; HEK293 cells stably expressing rat GABAA α2β2γ2; voltage-clamped at −60 mV; read-out: GABAA α2 EP EMAX (%)

`C#Cc1ccc2c(c1)C(c1ccccc1)=NCc1c(C(=O)NCCCO)ncn1-2` [Example 29, 8-Ethynyl-N-(3-hydroxypropyl)-6-phenyl-4H-benzo[f]imidazo[1,5-a][1,4]diazepine-3-carboxamide dihydrochloride] and `C#Cc1ccc2c(c1)C(c1ccccc1)=NCc1c(C(=O)NCCCCO)ncn1-2` [Example 31, 8-Ethynyl-N-(4-hydroxybutyl)-6-phenyl-4H-benzo[f]imidazo[1,5-a][1,4]diazepine-3-carboxamide dihydrochloride] fall in the same range of Emax: 300 to 400% for the first, 300 to 400% for the second.

`C#Cc1ccc2c(c1)C(c1ccccc1)=NCc1c(C(=O)NCCCCCO)ncn1-2` [Example 30, 8-Ethynyl-N-(5-hydroxypentyl)-6-phenyl-4H-benzo[f]imidazo[1,5-a][1,4]diazepine-3-carboxamide dihydrochloride] and `C#Cc1ccc2c(c1)C(c1ccccc1)=NCc1c(C(=O)NCCOC(C)=O)ncn1-2` [Example 32, 2-(8-Ethynyl-6-phenyl-4H-benzo[f]imidazo[1,5-a][1,4]diazepine-3-carboxamido)ethyl acetate dihydrochloride] fall in the same range of Emax: 300 to 400% for the first, 300 to 400% for the second.

Compared with `C#Cc1ccc2c(c1)C(c1ccccc1)=NCc1c(C(=O)NCC(=O)O)ncn1-2` [Example 33, 2-(8-Ethynyl-6-phenyl-4H-benzo[f]imidazo[1,5-a][1,4]diazepine-3-carboxamido)acetic acid], `C#Cc1ccc2c(c1)C(c1ccccc1)=NCc1c(C(=O)NCc3ccco3)ncn1-2` [Example 35, 8-Ethynyl-N-(furan-2-ylmethyl)-6-phenyl-4H-benzo[f]imidazo[1,5-a][1,4]diazepine-3-carboxamide, dihydrochloride] is lower in Emax: 400 to 500% for the first, 200 to 300% for the second.

First: C#Cc1ccc2c(c1)C(c1ccccc1F)=NCc1c(C(=O)NCCOC)ncn1-2 [Example 34, 8-Ethynyl-6-(2-fluorophenyl)-N-(2-methoxyethyl)-4H-benzo[f]imidazo[1,5-a][1,4]diazepine-3-carboxamide dihydrochloride]
Second: C#Cc1ccc2c(c1)C(c1ccccn1)=NCc1c(C(=O)NCCOC)ncn1-2 [Example 37, 8-Ethynyl-N-(2-methoxyethyl)-6-(pyridin-2-yl)-4H-benzo[f]imidazo[1,5-a][1,4]diazepine-3-carboxamide]
The Emax of the first is higher: 300 to 400% for the first, 200 to 300% for the second.

`C#Cc1ccc2c(c1)C(c1ccccc1)=NCc1c(C(=O)NCC3CCCO3)ncn1-2` (stereo not shown) [Example 36, 8-Ethynyl-6-phenyl-N-((tetrahydrofuran-2-yl)methyl)-4H-benzo[f]imidazo[1,5-a][1,4]diazepine-3-carboxamide, dihydrochloride] showed an Emax of 300 to 400%.
